≈ marks a conversion by molar mass, not a printed value. Where two headings read alike, the source gives them in different places.
Tests used:
[1] = tested on: M. intracellulare ATCC 13950; assay: microbe, parasite or virus in culture; format: cell-based; details: Mycobacterium intracellulare, ATCC13950, 96 h
[2] = tested on: M. abscessus subsp. bolletii CCUG 50184T; assay: microbe, parasite or virus in culture; format: cell-based, Mycobacterium abscessus; details: Mycobacteroides abscessus, 72 h
[3] = tested on: M. abscessus subsp. abscessus M422; assay: microbe, parasite or virus in culture; format: cell-based, Mycobacterium abscessus; details: Mycobacteroides abscessus, 72 h
[4] = tested on: M. abscessus subsp. bolletii M232; assay: microbe, parasite or virus in culture; format: cell-based, Mycobacterium abscessus; details: Mycobacteroides abscessus, 72 h
[5] = tested on: M. abscessus subsp. abscessus K21; assay: microbe, parasite or virus in culture; format: cell-based, Mycobacterium abscessus; details: Mycobacteroides abscessus, 72 h
[6] = tested on: nutrient-starved, nonreplicating M. abscessus Bamboo; assay: MBC determination under nutrient-starved conditions; format: cell-based, Mycobacterium abscessus; details: 48 h drug exposure
Protocol: The determination of drug bactericidal activity against nutrient-starved M. abscessus cultures was performed as previously described ([52]). […] Washed culture was then diluted with PBS/Tyloxapol to OD600 = 0.2 (1.8 × 10^7 CFU/ml). […] Appropriate concentrations of drugs up to 100 μM were added to the tubes prior to incubation at 37°C on a tilted rack in an orbital shaker at 220 rpm.

[7] = tested on: M. abscessus Bamboo RM1 (GyrA M129K); assay: microbe, parasite or virus in culture; format: cell-based, Mycobacterium abscessus
[8] = tested on: M. abscessus Bamboo RM3 (GyrA D91N); assay: microbe, parasite or virus in culture; format: cell-based, Mycobacterium abscessus
[9] = tested on: M. abscessus Bamboo RM4 (GyrA D91G); assay: microbe, parasite or virus in culture; format: cell-based, Mycobacterium abscessus
[10] = tested on: M. abscessus ATCC 19977 MXF_R1 (GyrA D96Y); assay: microbe, parasite or virus in culture; format: cell-based, Mycobacterium abscessus; details: Mycobacteroides abscessus, ATCC19977
[11] = AMP (artificial membrane permeability) assay; format: in vitro ADME; details: PAMPA, pH 7.4
Protocol: An 8% L-a-phosphatidylcholine (EPC) in 1% cholesterol decane solution and a 1.8% EPC in cholesterol decane solution were prepared. The lipid solution was aliquoted into 4 ml capped vials, sealed with parafilm and stored in −20°C freezer. The lipid solution was then transferred from 4 ml vial into a 96-well half area plate (130 μl/well) for daily assay usage. An additional 50 mM phosphate buffer with 0.5% encapsin, pH at 7.4 was prepared. The assay was run by the Biomek FX and Biomek software. The assay procedure is written under the Biomek software. For one batch assay, it can test two 96-well sample plates with at least one standard on each sample plate. The total assay time was about 4 h. 3.5 μl of lipid solution were added to the filler plate, shaken for 12 s, and 250 μl of buffer were added to donor side and 100 μl to the receiver side. The assay plate was shaken for 45 min before adding the compounds. The test compounds (2.5 μl) were added to the donor side. The assay was run as replicates: Assay plates 1 and 2 tested the sample plate 1; assay plates 3 and 4 tested the sample plate 2. The assay plates were then incubated and shaken for 3 h at room temperature. The assay samples were transferred to the HPLC analysis plates and 100 μl of receiver solution were aspirated and transferred to the receiver for analysis. […] Compound concentration was measured by HPLC at different time points.

human serum albumin = biological target: T1, human serum albumin (Homo sapiens, UniProt P02768); assay: Drug binding to human serum albumin (HSA HPLC column); format: in vitro ADME; details: immobilized human serum albumin HPLC column, pH 7.4, read-out: Protein binding (converted)
T1 construct: purchased Chiral Technologies Ltd., France
T1 sequence (P02768 25-609): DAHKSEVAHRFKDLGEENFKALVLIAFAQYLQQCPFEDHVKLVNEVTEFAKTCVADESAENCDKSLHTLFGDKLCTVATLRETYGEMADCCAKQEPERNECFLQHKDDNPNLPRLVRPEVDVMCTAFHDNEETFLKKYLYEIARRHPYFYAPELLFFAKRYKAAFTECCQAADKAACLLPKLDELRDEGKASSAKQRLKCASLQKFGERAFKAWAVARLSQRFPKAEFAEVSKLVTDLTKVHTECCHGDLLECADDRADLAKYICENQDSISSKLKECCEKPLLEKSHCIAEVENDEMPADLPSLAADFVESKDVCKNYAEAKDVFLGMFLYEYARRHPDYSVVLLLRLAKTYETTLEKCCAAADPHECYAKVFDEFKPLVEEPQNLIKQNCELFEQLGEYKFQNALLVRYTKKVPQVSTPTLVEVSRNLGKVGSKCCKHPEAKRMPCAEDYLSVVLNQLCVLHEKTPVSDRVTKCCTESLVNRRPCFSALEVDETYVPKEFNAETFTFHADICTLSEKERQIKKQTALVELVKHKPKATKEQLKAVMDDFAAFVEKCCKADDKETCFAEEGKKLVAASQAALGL

[12] = Mouse oral pharmacokinetics; format: in vivo; details: for concentration at 24 h / AUC(0-t) / half-life: female; for concentration at 24 h: CD-1, mouse, below limit of quantitation (LOQ), read-out: plasma concentration at the 24h time point; for AUC(0-t) / half-life: mouse
Protocol: All animal studies were ethically reviewed and carried out in accordance with the Institutional Animal Care and Use Committee of Hackensack Meridian Health. Six-week-old CD-1 female mice (20–25 g) were used in pharmacokinetic studies. Groups of 3 mice received a single oral dose of EC/11716 formulated in 0.4% methylcellulose, at either 50, 200 or 400 mg/kg. Aliquots of 20 μl of blood were collected from the lateral tail vein by serial puncture from each mouse at 0.5, 1, 3, 5, 7 and 24h post dose in K2EDTA tubes. Plasma was recovered after centrifugation and stored at −80°C until analyzed by high pressure liquid chromatography coupled to tandem mass spectrometry.
Neat 1 mg/ml DMSO stocks of EC/11716 were serial diluted in 50/50 Acetonitrile water to create standard curves and quality control spiking solutions. Standards and QCs were created by adding 10μls of spiking solutions to 90μls of drug free plasma (CD-1 K2EDTA Mouse, Bioreclamation IVT). 10μls of control, standard, QC, or study sample were added to 100 μl of Acetonitrile/Methanol 50/50 protein precipitation solvent containing 10 ng/ml of the internal standard Verapamil (Sigma-Aldrich). Extracts were vortexed for 5 min and centrifuged at 4000 RPM for 5 min. 75 μl of supernatant was transferred for HPLC-MS/MS analysis and diluted with 75 μl of Milli-Q deionized water.
LC-MS/MS analysis was performed on a Sciex Applied Biosystems Qtrap 6500+ triple-quadrupole mass spectrometer coupled to a Shimadzu Nexera X2 UHPLC system to quantify each drug in plasma. Chromatography was performed on a Phenomenex Luna Omega column (2.1 × 100 mm; particle size, 3 μm) using a reverse phase gradient. Milli-Q deionized water with 0.1% formic acid was used for the aqueous mobile phase and 0.1% formic acid in acetonitrile for the organic mobile phase. Multiple-reaction monitoring of parent/daughter transitions in electrospray positive-ionization mode was used to quantify the analytes. The following MRM transitions were used for EC/11716 (458.09/203.10) and Verapamil (455.40/165.00). Sample analysis was accepted if the concentrations of the quality control samples were within 20% of the nominal concentration. Data processing was performed using Analyst software (version 1.6.2; Applied Biosystems Sciex).

[13] = mice, oral 400 mg/kg, from PK profiles and potency data

COc1cnc2ccc(=O)n(CCN3CCC(NCc4cnc(CO)c(Cl)c4)CC3)c2c1 [EC/11716]
MIC [1]: 3.3 µM (≈ 1.51 µg/mL) | MIC [2]: 4.1 µM (≈ 1.88 µg/mL) | MIC [3]: 1.8 µM (≈ 0.824 µg/mL) | MIC [4]: 2.5 µM (≈ 1.14 µg/mL) | MIC [5]: 3 µM (≈ 1.37 µg/mL) | MBC [6]: >100 µM | MBC ([6]; Mycobacteroides abscessus): > 100 µM | MIC [7]: >100 µM | MIC ([7]; Mycobacteroides abscessus): > 100 µM | MIC [8]: >100 µM | MIC ([8]; Mycobacteroides abscessus): > 100 µM | MIC [9]: >100 µM | MIC ([9]; Mycobacteroides abscessus): > 100 µM | MIC [10]: ≤ 10 µM | Papp at 3 h [11]: 16 ×10⁻⁶ cm/s | fraction unbound (human serum albumin): 0.505 | DNAUC[0-24]_50 mg/kg ([12]; CD-1 mice, oral 50 mg/kg, dose-normalized AUC, mean (SD)): 58 (16) ng*h/ml per mg/kg | Tmax_50 mg/kg ([12]; CD-1 mice, oral 50 mg/kg, range of values): 0.5 to 1.0 h | DNAUC[0-24]_200 mg/kg ([12]; CD-1 mice, oral 200 mg/kg, dose-normalized AUC, mean (SD)): 167 (24) ng*h/ml per mg/kg | Tmax_200 mg/kg ([12]; CD-1 mice, oral 200 mg/kg, range of values): 0.5−1.0 h | DNAUC[0-24]_400 mg/kg ([12]; CD-1 mice, oral 400 mg/kg, dose-normalized AUC, mean (SD)): 202 (8) ng*h/ml per mg/kg | Tmax_400 mg/kg ([12]; CD-1 mice, oral 400 mg/kg, range of values): 0.5 to 1.0 h | Cmax_50 mg/kg ([12]; CD-1 mice, single oral dose 50 mg/kg, plasma, mean (SD)): 632 (430) ng/ml | Cmax_200 mg/kg ([12]; CD-1 mice, single oral dose 200 mg/kg, plasma, mean (SD)): 7,177 (618) ng/ml | Cmax_400 mg/kg ([12]; CD-1 mice, single oral dose 400 mg/kg, plasma, mean (SD)): 16,767 (8,281) ng/ml | concentration at 24 h ([12]; plasma, mice, oral 50 mg/kg): < 20 ng/mL | concentration at 24 h ([12]; plasma, mice, oral 200 mg/kg): < 20 ng/mL | AUC(0-t) ([12]; plasma, CD-1 mice, oral 50 mg/kg, mean (SD), read-out: AUC[0-24]_50 mg/kg): 2900 ng·h/mL | half-life ([12]; plasma, CD-1 mice, oral 50 mg/kg, mean (SD), read-out: Elimination T1/2 _50 mg/kg (converted)): 2.7 h | AUC(0-t) ([12]; plasma, CD-1 mice, oral 200 mg/kg, mean (SD), read-out: AUC[0-24]_200 mg/kg): 33400 ng·h/mL | half-life ([12]; plasma, CD-1 mice, oral 200 mg/kg, mean (SD), read-out: Elimination T1/2 _200 mg/kg (converted)): 1.7 h | AUC(0-t) ([12]; plasma, CD-1 mice, oral 400 mg/kg, mean (SD), read-out: AUC[0-24]_400 mg/kg): 80700 ng·h/mL | half-life ([12]; plasma, CD-1 mice, oral 400 mg/kg, mean (SD), read-out: Elimination T1/2 _400 mg/kg (converted)): 3.6 h | time above MIC of M. abscessus K21 planktonic cultures [12, 13]: 67% | time above MIC of M. abscessus biofilms [12, 13]: greater than 70% | frequency of resistance (M. abscessus Bamboo): 1.8 × 10^−8 /CFU

Reference: publication PMC8597734 (Antimicrobial Agents and Chemotherapy, 2021)
